# Results: patent US8664379B2, “Fused heterocyclic compounds as ion channel modulators” (Gilead Sciences, Inc., priority 2008, dated 2014)
# Key:
# [1] = biological target: wild-type human cardiac sodium channel, hNav1.5 (late sodium current) (Homo sapiens, UniProt Q14524); experiment: Late INa screening assay (PatchXpress whole cell patch clamp); type: cell-based; details: HEK293, 10 μM test compound; HEK293 cells expressing hNav1.5; late INa generated with 10 μM Tefluthrin (some experiments 50 nM ATX II); read-out: Late INa % blk (10 μM test cmpd)
# Method: The late sodium current (Late INa) and peak sodium current (Peak INa) assays were performed on an automated electrophysiology platform, PatchXpress 7000A (MDS Analytical Technologies, Sunnyvale, Calif.), which uses the whole cell patch clamp technique to measure currents through the cell membrane of up to 16 cells at a time. The assay used an HEK293 (human embryonic kidney) cell line heterologously expressing the wild-type human cardiac sodium channel, hNav1.5, purchased from Millipore (Billerica, Mass.). No beta subunits were coexpressed with the Na channel alpha subunit. Cells were maintained with standard tissue culture procedures and stable channel expression was maintained with 400 μg/ml Geneticin in the culture medium. Cells isolated for use on PatchXpress were incubated for 5 minutes in Versene 1× and then for 2 minutes in 0.0125% Trypsin-EDTA (both at 37° C.) to ensure that 80-90% of the cells are single and not part of a cell cluster. Experiments were carried out at 24-27° C.
# For both the Late INa and Peak INa assays, series resistance compensation was set to 50% and whole-cell compensation was performed automatically. Currents were low-pass filtered at 10 kHz and digitized at 31.25 kHz. Currents through open sodium channels were automatically recorded and stored in the DataXpress2 database (MDS Analytical Technologies, Sunnyvale, Calif.). Analysis was performed using DataXpress2 analysis software and data are compiled in Excel.
# Compound stocks were routinely made in glass vials to 10 mM in dimethyl sulfoxide (DMSO). In some cases, when compounds were not soluble in DMSO, they were made in 100% ethanol. Stocks were sonicated as necessary. The extracellular solution for screening Late INa was composed of: 140 mM NaCl, 4 mM KCl, 1.8 mM CaCl2, 0.75 mM MgCl2, and 5 mM HEPES with pH adjusted to 7.4 using NaOH. The extracellular solution for screening Peak INa was composed of: 20 mM NaCl, 120 mM N-methyl-D glucamine, 4 mM KCl, 1.8 mM CaCl2, 0.75 mM MgCl2, and 5 mM HEPES with pH adjusted to 7.4 using HCl. The intracellular solution used to perfuse the inside of the cells for both the Late INa and Peak INa assays contains: 120 mM CsF, 20 mM CsCl, 5 mM EGTA, 5 mM HEPES and pH adjusted to 7.4 with CsOH. Compounds were diluted in extracellular solution to 10 μM in glass vials and then transferred to glass well plates before robotic addition to the cells. The 0Na extracellular solution used at the end of each experiment for the Late INa and Peak INa assays to measure baseline current contained: 140 mM N-methyl-D-glucamine; 4 mM KCl; 1.8 mM CaCl2; 0.75 mM MgCl2; 5 mM HEPES and pH was adjusted to 7.4 with HCl.
# For the Late INa assay, sodium channels were activated every 10 seconds (0.1 Hz) by depolarizing the cell membrane to −20 mV for 250 milliseconds (ms) from a holding potential of −120 mV. In response to a −20 mV voltage step, typical Nav1.5 sodium currents activated rapidly to a peak negative current and then inactivated nearly completely within 3-4 ms.
# All compounds were tested to determine their activity in blocking the late sodium current. Late INa current is generated by adding 10 μM Tefluthrin (pyrethroid) to the extracellular solution while recording Na currents. For some experiments, 50 nM ATX II (sea anemone toxin), another late INa activator, was used to generate the late component. Both activators generate late components that are large enough that block of the late component by compounds can be measured easily. For the purposes of the screening, late INa is defined as the mean current between 225 ms and 250 ms after stepping to −20 mV to activate Na channels. After establishing the whole cell recording configuration, late INa activators were added to each well 4 times over a 16-17 minute period so that the late component of the Na current reached a stable value. Compounds were then added (typically at 10 μM), in the presence of late INa activator, with 3 additions over the course of 7 or 8 minutes. […]
# hERG potassium channel = biological target: T1, hERG potassium channel (Homo sapiens, UniProt Q12809); experiment: hERG screening assay (PatchXpress patch clamp); type: cell-based; details: hERG expressed in CHO cells, peak current at -50 mV; for hERG Patch Clamp hERG % blk 1 μm: 1 μM test compound; for hERG Patch Clamp hERG % blk 10 μm: 10 μM test compound
# T1 construct: expressed in transfected cells
# Method: Compounds were screened to test their activity in blocking the hERG potassium channel. The hERG channel was heterologously expressed in a CHO (Chinese Hamster Ovary) cell line. Cells were maintained with standard tissue culture procedures and stable channel expression was maintained with 500 μg/ml G418 in the culture medium. Cells were harvested for testing on the PatchXpress automated patch clamp with Accumax (Innovative Cell Technologies, San Diego, Calif.) to isolate single cells.
# The following solutions were used for electrophysiological recordings. The external solution contained: 2 mM CaCl2; 2 mM MgCl2; 4 mM KCl; 150 mM NaCl; 10 mM Glucose; 10 mM HEPES (pH 7.4 with 1M NaOH, osmolarity). The internal solution contained: 140 mM KCl, 10 mM MgCl2, 6 mM EGTA, 5 mM HEPES, 5 mM ATP (pH adjusted to 7.25 with KOH).
# hERG channels are activated when the voltage is stepped to +20 mV from the −80 mV holding potential. During a 5 second step at +20 mV, the channels activated and then largely inactivated, so the currents were relatively small. Upon returning to −50 mV from +20 mV, hERG currents transiently became much larger as inactivation was rapidly removed and then the channel closed. The first step to −50 mV for 300 ms was used as a baseline for measuring the peak amplitude during the step to −50 mV after channel activation. The peak current at −50 mV was measured both under control conditions and after addition of compound.
# All compounds were prepared as 10 mM DMSO stocks in glass vials. Stock solutions were mixed by vigorous vortexing and sonication for about 2 minutes at room temperature. For testing, compounds were diluted in glass vials using an intermediate dilution step in pure DMSO and then further diluted to working concentrations in external solution. Dilutions were prepared no longer than 20 minutes before use.
# After achieving the whole-cell configuration, cells were monitored for 90 seconds to assess stability and washed with external solution for 66 seconds. The voltage protocol described above was then applied to the cells every 12 seconds and throughout the whole procedure. Only cells with stable recording parameters and meeting specified health criteria were allowed to enter the compound addition procedure.
# External solution containing 0.1% DMSO (vehicle) was applied to the cells first to establish the control peak current amplitude. After allowing the current to stabilize for 3 to 5 minutes, 1 μM and then 10 μM test compounds were applied. Each compound concentration was added 4 times and cells were kept in test solution until the effect of the compound reached steady state or for a maximum of 12 minutes. After addition of test compound, a positive control (1 μM Cisapride) was added—it must block >95% of the current for the experiment to be considered valid. Washout in the external solution compartment was performed until the recovery of the current reached steady state. Data were analyzed using DataXpress, Clampfit (Molecular Devices, Inc., Sunnyvale) and Origin 7 (Originlab Corp.)
# T1 sequence (Q12809 whole entry): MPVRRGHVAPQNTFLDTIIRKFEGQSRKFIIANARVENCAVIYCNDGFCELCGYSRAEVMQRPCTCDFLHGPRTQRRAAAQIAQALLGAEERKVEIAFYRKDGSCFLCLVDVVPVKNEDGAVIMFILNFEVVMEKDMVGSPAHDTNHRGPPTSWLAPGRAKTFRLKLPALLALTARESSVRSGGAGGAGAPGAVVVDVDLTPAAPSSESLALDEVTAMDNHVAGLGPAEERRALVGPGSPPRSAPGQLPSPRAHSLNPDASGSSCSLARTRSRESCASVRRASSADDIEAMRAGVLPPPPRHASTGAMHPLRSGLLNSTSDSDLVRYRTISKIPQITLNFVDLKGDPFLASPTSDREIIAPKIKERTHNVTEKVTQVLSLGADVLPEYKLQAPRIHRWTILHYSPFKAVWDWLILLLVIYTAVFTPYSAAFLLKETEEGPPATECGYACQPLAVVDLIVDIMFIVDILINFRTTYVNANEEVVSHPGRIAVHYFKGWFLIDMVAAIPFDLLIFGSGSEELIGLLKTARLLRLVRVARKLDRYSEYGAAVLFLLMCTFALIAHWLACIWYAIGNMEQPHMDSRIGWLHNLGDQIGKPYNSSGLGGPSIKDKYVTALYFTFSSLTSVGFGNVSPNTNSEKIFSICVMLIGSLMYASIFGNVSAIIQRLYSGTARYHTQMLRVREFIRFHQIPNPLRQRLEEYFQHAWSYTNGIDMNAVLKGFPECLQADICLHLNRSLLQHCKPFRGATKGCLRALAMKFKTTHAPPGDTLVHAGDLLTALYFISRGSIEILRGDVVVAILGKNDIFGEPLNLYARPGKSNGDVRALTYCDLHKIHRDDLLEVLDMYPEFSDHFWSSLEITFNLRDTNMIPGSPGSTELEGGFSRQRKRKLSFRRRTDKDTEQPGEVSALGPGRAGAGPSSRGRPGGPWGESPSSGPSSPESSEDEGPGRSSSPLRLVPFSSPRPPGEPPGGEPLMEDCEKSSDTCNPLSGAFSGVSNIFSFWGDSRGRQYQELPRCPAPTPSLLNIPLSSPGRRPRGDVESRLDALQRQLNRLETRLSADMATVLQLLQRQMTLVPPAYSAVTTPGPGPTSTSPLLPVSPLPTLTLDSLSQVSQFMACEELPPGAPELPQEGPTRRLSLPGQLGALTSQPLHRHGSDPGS
# Sequence of wild-type human cardiac sodium channel, hNav1.5 (late sodium current) (Q14524 whole entry): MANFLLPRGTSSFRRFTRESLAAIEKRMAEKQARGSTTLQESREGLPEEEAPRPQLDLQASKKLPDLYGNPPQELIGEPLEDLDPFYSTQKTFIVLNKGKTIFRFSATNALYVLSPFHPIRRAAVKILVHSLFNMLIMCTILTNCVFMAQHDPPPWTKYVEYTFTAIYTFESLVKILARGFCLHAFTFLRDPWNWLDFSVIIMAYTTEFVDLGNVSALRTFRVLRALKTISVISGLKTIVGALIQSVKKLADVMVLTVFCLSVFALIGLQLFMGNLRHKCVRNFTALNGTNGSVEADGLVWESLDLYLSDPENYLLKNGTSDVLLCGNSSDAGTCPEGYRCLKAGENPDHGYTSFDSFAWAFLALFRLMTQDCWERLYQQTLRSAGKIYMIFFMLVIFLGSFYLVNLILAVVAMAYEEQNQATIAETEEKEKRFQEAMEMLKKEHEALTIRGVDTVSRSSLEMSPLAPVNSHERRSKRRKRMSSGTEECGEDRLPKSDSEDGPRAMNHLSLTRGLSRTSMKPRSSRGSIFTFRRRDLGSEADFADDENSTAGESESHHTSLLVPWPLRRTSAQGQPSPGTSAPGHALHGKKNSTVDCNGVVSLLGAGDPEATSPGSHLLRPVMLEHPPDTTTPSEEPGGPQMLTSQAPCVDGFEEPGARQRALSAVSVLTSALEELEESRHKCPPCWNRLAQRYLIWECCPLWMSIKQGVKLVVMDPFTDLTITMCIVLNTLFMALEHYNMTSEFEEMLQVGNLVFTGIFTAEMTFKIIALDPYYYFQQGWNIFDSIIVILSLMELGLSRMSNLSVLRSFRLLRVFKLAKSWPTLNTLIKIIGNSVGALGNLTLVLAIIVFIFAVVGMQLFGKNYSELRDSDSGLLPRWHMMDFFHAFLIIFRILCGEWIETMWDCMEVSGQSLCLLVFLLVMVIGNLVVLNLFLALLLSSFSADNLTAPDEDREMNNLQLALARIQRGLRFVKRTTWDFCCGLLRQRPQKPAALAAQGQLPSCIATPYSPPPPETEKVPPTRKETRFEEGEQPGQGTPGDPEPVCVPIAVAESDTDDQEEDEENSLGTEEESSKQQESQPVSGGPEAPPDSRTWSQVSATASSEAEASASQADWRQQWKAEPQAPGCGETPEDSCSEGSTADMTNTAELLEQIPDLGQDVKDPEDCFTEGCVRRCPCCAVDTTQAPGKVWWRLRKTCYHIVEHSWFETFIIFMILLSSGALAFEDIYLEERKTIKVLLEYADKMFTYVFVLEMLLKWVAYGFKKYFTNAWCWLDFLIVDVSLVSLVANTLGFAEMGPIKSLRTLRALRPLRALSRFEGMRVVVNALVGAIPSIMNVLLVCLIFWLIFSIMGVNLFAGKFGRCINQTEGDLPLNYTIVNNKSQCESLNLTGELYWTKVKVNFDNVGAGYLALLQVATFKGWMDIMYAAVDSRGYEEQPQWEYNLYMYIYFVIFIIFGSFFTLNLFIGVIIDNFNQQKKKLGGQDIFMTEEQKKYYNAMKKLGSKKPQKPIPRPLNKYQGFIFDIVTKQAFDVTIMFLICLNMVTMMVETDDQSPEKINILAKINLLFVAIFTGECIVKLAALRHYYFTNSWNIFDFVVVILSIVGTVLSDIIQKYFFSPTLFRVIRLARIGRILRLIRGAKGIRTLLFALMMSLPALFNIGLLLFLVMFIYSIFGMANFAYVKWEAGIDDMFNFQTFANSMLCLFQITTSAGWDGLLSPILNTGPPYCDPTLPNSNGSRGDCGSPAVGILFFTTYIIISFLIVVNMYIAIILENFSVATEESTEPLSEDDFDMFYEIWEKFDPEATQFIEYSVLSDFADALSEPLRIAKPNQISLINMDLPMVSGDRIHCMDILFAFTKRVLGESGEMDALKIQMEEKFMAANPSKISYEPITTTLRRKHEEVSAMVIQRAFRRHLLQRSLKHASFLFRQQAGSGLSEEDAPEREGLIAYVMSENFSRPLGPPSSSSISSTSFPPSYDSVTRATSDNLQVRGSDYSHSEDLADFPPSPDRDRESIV
SMILES,inhibition at 10 µM [1],hERG Patch Clamp hERG % blk 1 μm (hERG potassium channel),hERG Patch Clamp hERG % blk 10 μm (hERG potassium channel)
"O=C1CCc2cc(-c3cccc(F)c3)ccc2N1 [Compound 1, 6-(3-fluorophenyl)-3,4-dihydroquinolin-2(1H)-one]",74%,10%,19%
"O=C1CCc2cc(-c3ccccc3)ccc2N1 [Compound 4, 6-phenyl-3,4-dihydroquinolin-2(1H)-one]",48%,10%,16%
"O=C1CCc2cc(-c3ccc(C(F)(F)F)cc3)ccc2N1CCO [Compound 14, 1-(2-hydroxyethyl)-6-[4-(trifluoromethyl)phenyl]-3,4-dihydroquinolin-2(1H)-one]",29%,10%,28%
"O=C1CCc2cc(-c3ccc(F)c(F)c3)ccc2N1CCO [Compound 15, 6-(3,4-difluorophenyl)-1-(2-hydroxyethyl)-3,4-dihydroquinolin-2(1H)-one]",36%,13%,59%
"CN1C(=O)CCc2cc(-c3cccc(F)c3)ccc21 [Compound 21, 6-(3-fluorophenyl)-1-methyl-3,4-dihydroquinolin-2(1H)-one]",65%,11%,36%
"CCOC(=O)CN1C(=O)CCc2cc(-c3ccc(OC(F)(F)F)cc3)ccc21 [Compound 25, ethyl {2-oxo-6-[4-(trifluoromethoxy)phenyl]-3,4-dihydroquinolin-1(2H)-yl}acetate]",20%,26%,32%
"O=C1CCc2cc(-c3ccc(F)cc3F)ccc2N1Cc1csc(-c2ccc(Cl)cc2)n1 [Compound 26, 1-{[2-(4-chlorophenyl)-1,3-thiazol-4-yl]methyl}-6-(2,4-difluorophenyl)-3,4-dihydroquinolin-2(1H)-one]",20%,10%,10%
"COCCN1C(=O)CCc2cc(-c3ccc(F)cc3F)ccc21 [Compound 27, 6-(2,4-difluorophenyl)-1-(2-methoxyethyl)-3,4-dihydroquinolin-2(1H)-one]",52%,12%,47%
"CC(C)(C)OC(=O)CN1C(=O)CCc2cc(-c3ccc(C(F)(F)F)cc3)ccc21 [Compound 29, tert-butyl {2-oxo-6-[4-(trifluoromethyl)phenyl]-3,4-dihydroquinolin-1(2H)-yl}acetate]",69%,11%,97%
"O=C1CCc2cc(-c3ccc(OC(F)(F)F)cc3)ccc2N1 [Compound 34, 6-[4-(trifluoromethoxy)phenyl]-3,4-dihydroquinolin-2(1H)-one]",60%,13%,37%
"Cc1cc(CN2C(=O)CCc3cc(-c4ccc(OC(F)(F)F)cc4)ccc32)no1 [Compound 39, 1-[(5-methylisoxazol-3-yl)methyl]-6-[4-(trifluoromethoxy)phenyl]-3,4-dihydroquinolin-2(1H)-one]",60%,12%,96%
"O=C(O)CN1C(=O)CCc2cc(-c3ccc(C(F)(F)F)cc3)ccc21 [Compound 44, {2-oxo-6-[4-(trifluoromethyl)phenyl]-3,4-dihydroquinolin-1(2H)-yl}acetic acid]",–,10%,10%
"COCCN1C(=O)CCc2cc(-c3ccc(C(F)(F)F)cc3)ccc21 [Compound 49, 1-(2-methoxyethyl)-6-[4-(trifluoromethyl)phenyl]-3,4-dihydroquinolin-2(1H)-one]",60%,10%,42%
"O=C(O)CN1C(=O)CCc2cc(-c3ccc(Cl)c(F)c3)ccc21 [Compound 58, [6-(4-chloro-3-fluorophenyl)-2-oxo-3,4-dihydroquinolin-1(2H)-yl]acetic acid]",13%,10%,10%
"O=C(O)CN1C(=O)CCc2cc(-c3cccc(C(F)(F)F)c3)ccc21 [Compound 60, 2-(2-oxo-6-(3-(trifluoromethyl)phenyl)-3,4-dihydroquinolin-1(2H)-yl)acetic acid]",25%,10%,10%
